From patent US11974988B2, “Neuroprotective compositions and methods of using the same” (The Board of Supervisors of Louisiana State Univer …, priority 2018, dated 2024)
Several values for one entry are separate records, joined by “and”; a condition that tells them apart may be missing. Equal entries are not always repeated. Where two headings read alike, the source gives them in different places.

How the values were obtained:
[1] = tested on: SNAT1 or SNAT2; settings: cited from earlier work
[2] = tested on: activity-regulated Gln/MeAIB transport (SNAT activity) in hippocampal neurons; experiment: Activity-regulated (spontaneous, 4-AP- or K+-stimulated) [14C]-MeAIB transport in primary hippocampal neurons; assay type: cell-based, rat; settings: for inhibition of spontaneous activity-regulated 14C-MeAIB transport, in words: screens, 10 μM, GABA 2 mM; for IC50: n in brackets
[3] = tested on: activity-regulated Gln/MeAIB transport (SNAT activity) in hippocampal neurons; settings: read-out: Km of the activity-regulated Gln/MeAIB transport system; cited from earlier work
[4] = tested on: KCa2 and NaV channels; settings: cited from earlier work
[5] = biological target: T1, NaV1.2 (Mus musculus, UniProt B1AWN6); experiment: NaV currents recorded by whole-cell patch clamp from N1E-115 neuroblastoma cells expressing NaV1.2; assay type: cell-based; settings: read-out: Selectivity IC50 Nav1.2
T1 construct: N1E-115 cells that constitutively express NaV1.2; endogenous in cells; host or cells: N1E-115 mouse neuroblastoma cells
Excerpt: Cells were held at −80 mV and current elicited by a 0 mV depolarization stepped from a −120 mV conditioning pulse at 0.1 Hz.
Cells transiently (or stably) expressing voltage-gated Na^+ or K^+ channels will be subjected to electrophysiological recording using the whole-cell patch-clamp technique. We will use HEK-293 cell lines stably expressing hNaV1.1, hNaV1.5, hNaV1/7, hNaV1.4, and hKV2.1. […] All cells will be voltage clamped to a holding potential of −90 mV, otherwise specified if held at −120 mV in the case of NaV1.2 use-dependence recording. Na^+ currents will be elicited by 30-ms pulse to 0 mV from −90 mV applied every 10 s. KV2.1 currents will be elicited by 200-ms voltage steps from −90 to 40 mV applied every 10 s.

[6] = tested on: plasma protein; experiment: Plasma protein binding; assay type: in vitro ADME, rat
Excerpt: Synthesis of SKA-41, SKA-190, SKA-219 and SKA-220 and will validate plasma protein binding with rat plasma using equilibrium dialysis so that we can validate protein binding.

[7] = tested on: delayed-rectifier K+ channels and two-pore K+ channels; settings: cited from earlier work
[8] = tested on: N- and P/Q-type Ca2+ channels; settings: read-out: IC50, block of N- and P/Q-type Ca2+ channels; cited from earlier work
[9] = tested on: NaV channels; settings: read-out: IC50s, inhibition of NaV channels; cited from earlier work
[10] = biological target: protein Kinase C; settings: read-out: IC50, inhibition of protein Kinase C; cited from earlier work
[11] = tested on: small-conductance Ca2+-activated K+ channels; settings: read-out: EC50, activation of small-conductance Ca2+-activated K+ channels; cited from earlier work
[12] = Rattus norvegicus, Hippocampal neuron, 4-AP-stimulated (depolarization) [14C]-MeAIB uptake, DIV16, read-out: SNAT Activity IC50, 4-AP
[13] = Rattus norvegicus, Hippocampal neuron, spontaneous [14C]-MeAIB uptake, DIV 19, read-out: SNAT Activity IC50, Spont

T1 sequence (B1AWN6 whole entry): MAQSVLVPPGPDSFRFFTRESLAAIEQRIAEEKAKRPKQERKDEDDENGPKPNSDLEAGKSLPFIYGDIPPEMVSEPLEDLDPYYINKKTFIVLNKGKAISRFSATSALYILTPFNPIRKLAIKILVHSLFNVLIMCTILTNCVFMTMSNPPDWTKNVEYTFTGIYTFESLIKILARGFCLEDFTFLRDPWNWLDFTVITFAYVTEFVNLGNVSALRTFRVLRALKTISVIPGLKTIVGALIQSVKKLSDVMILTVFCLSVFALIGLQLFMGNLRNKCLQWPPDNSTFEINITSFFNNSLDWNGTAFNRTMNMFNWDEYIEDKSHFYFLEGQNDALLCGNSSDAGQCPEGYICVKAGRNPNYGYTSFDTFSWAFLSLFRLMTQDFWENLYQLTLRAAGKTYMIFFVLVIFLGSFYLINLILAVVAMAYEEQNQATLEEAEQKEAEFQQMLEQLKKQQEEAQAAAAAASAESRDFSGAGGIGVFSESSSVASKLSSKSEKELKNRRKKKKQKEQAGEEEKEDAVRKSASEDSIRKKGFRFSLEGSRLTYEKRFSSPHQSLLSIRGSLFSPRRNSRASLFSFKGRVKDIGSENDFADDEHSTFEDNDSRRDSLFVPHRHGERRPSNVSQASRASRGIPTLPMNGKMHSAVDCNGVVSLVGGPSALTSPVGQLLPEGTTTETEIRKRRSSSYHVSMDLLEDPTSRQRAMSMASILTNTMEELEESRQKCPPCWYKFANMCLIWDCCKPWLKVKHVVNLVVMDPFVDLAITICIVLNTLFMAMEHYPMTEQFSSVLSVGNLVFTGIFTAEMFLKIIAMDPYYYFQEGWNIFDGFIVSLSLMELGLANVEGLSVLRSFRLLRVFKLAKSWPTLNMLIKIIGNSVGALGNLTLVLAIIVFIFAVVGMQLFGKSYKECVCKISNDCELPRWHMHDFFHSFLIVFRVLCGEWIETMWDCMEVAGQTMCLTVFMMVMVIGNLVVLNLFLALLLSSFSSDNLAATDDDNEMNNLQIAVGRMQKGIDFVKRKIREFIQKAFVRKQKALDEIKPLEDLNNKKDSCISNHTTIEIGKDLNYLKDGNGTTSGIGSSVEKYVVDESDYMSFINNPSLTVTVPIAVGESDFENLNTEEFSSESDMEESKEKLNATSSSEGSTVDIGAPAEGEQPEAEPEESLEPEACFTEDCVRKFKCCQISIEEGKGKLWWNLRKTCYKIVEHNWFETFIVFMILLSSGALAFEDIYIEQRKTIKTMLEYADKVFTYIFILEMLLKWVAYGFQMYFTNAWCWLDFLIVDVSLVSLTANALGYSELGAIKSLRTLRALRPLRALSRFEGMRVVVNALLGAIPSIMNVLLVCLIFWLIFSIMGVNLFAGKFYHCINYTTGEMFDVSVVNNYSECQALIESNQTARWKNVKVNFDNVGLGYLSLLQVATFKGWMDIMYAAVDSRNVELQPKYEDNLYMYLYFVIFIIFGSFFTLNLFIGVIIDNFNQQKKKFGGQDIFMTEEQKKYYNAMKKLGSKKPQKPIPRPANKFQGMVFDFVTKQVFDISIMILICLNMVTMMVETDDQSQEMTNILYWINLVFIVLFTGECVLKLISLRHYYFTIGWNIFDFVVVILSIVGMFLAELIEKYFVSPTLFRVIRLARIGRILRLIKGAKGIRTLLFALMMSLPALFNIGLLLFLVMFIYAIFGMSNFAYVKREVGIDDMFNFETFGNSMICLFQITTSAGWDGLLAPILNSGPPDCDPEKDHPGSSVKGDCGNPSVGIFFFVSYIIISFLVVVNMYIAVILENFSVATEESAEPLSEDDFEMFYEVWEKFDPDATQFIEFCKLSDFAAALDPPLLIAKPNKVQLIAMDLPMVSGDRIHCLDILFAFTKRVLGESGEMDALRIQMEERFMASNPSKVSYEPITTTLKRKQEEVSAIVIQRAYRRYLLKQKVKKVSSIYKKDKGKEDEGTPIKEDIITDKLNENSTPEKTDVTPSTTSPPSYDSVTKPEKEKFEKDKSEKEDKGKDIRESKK

For `CNC(C)(C)C(=O)O` [MeAIB, α-methylaminoisobutyric acid, reference compound], the “affinity of SNAT1 or SNAT2 for MeAIB” value [1] is listed as greater than 0.5 mM, the “relative affinity for PMA-induced K+-activity-stimulated Gln/MeAIB transport activity” value ([2]; PMA 10 min before KCl 60 mM) is listed as roughly 35 µM and the Km [3] is listed as 30 µM.
For `Nc1nc2ccc(Cc3ccccc3)cc2s1` [SKA-7], the established ion-channel activity [4] is given as “NaV blockers” and the “inhibition of spontaneous activity-regulated 14C-MeAIB transport, in words” value (“inhibition … in words” below) [2] is given as “active”.
In the case of `Nc1nc2ccc(OC(F)(F)Cl)cc2s1` [SKA-11, reference compound], the established ion-channel activity [4] is given as “mixed NaV blockers and KCa activators” and the “inhibition … in words” value [2] is given as “active”.
For `Nc1nc2ccc(SC(F)(F)F)cc2s1` [SKA-19, 2-amino-6-trifluoromethylthio-benzothiazole, reference compound], the established ion-channel activity [4] is given as “mixed NaV blockers and KCa activators”, the inhibition at 10 µM ([2]; Rattus norvegicus, Hippocampal neuron, at 10 μM, read-out: block / inhibition of transport activity) is given as roughly 90% and the “inhibition … in words” value [2] is given as “active”.
For `Nc1nc2ccc3ccccc3c2s1` [SKA-45], the established ion-channel activity [4] is listed as “KCa2 activators” and the “inhibition … in words” value [2] is listed as “active”.
With `Nc1nc(-c2cccc3ccccc23)c(Br)s1` [drawing 65] the IC50 [5] was 30 µM, the “Plasma Protein” value [6] was greater than 98% and the “fold difference 4-AP IC50 over Spont IC50” value [2] was 2.8 x. For the same compound, the IC50 [2, 12] was 5.1 µM and the IC50 [2, 13] was 1.8 µM.
In the case of `Nc1nc(-c2ccc3ccccc3c2)c(Br)s1` [drawing 66], the “Plasma Protein” value [6] is reported as greater than 98%, the “fold difference 4-AP IC50 over Spont IC50” value [2] is reported as 1.5 x and the IC50 [2, 12] is reported as 6.8 µM. The IC50 [2, 13] was 4.4 µM.
For `Nc1nc2ccc(OC(F)(F)F)cc2s1` [riluzole], the IC50 [7] is listed as greater than 30 µM, the “concentration inhibiting delayed-rectifier K+ channels and activating two-pore K+ channels” value [7] is listed as 30 to 100 µM and the IC50 [8] is listed as greater than 40 µM. The IC50 [9] was 1 to 500 µM and 1 to 50 µM, the IC50 [10] was greater than 30 µM and the established ion-channel activity [4] was “mixed NaV blockers and KCa activators”. The EC50 [11] was 10 to 200 µM and 10 to 20 µM and > 20 µM.
